In patent US8961837B2, “Photosensitive resin composition for color filter and color filter using same” (Cheil Industries Inc., priority 2010, dated 2015):

What was measured:
[1] = Spectrum transmittance / maximum absorption wavelength of the dye; format: physicochemical
Method: (§1) The diaminopyridine azo-based dyes (A-1) according to Examples 1 to 6 are measured regarding various properties such as solubility, maximum absorption wavelength, thermal decomposition temperature, and the like.
(§2) FIG. 1 is a graph showing the spectrum transmittance graph of the diaminopyridine azo-based dye (A-1), and FIG. 2 is a graph showing thermogravimetric analysis (TGA) results.

[2] = Thermogravimetric analysis (TGA) of the dye; format: physicochemical; details: temperature at which 10% of weight is decomposed (TGA)
Method: as §1, §2

- maximum absorption wavelength [1]: 470 nm
- thermal decomposition temperature [2]: 318 °C
SMILES: CCCCC(CC)CNCCS(=O)(=O)c1ccc(/N=N/c2c(NCC(CC)CCCC)nc(NCC(CC)CCCC)c(C#N)c2C)cc1 (centres unmarked) [A-1]
